# Data taken from ChEMBL document CHEMBL4390683, “Design, synthesis, and evaluation of α-galactopyranosylceramide mimics promoting Th2 cytokines production” (2019).
# Experiments:
# Type in all cases: functional
# Mus musculus [1] = experiment: Induction of serum IFNgamma production in C57BL/6 mouse assessed as serum IFNgamma level at 100 ug/kg, ip and measured for 48 hrs by AUC method
# Mus musculus [2] = experiment: Induction of serum IFNgamma production in C57BL/6 mouse at 100 ug/kg, ip and measured for 48 hrs by AUC method relative to KRN7000
# Mus musculus [3] = experiment: Induction of serum IL-4 production in C57BL/6 mouse at 100 ug/kg, ip and measured for 48 hrs by AUC method relative to KRN7000
# Mus musculus [4] = experiment: Ratio of induction activity for IL-4 production in C57BL/6 mouse at 100 ug/kg, ip after 48 hrs by AUC method to induction activity for IFN-gamma production in C57BL/6 mouse at 100 ug/kg, ip after 48 hrs by AUC method
# Mus musculus [5] = experiment: Induction of serum IL-4 production in C57BL/6 mouse assessed as serum IL-4 level at 100 ug/kg, ip and measured for 48 hrs by peak value method relative to KRN7000
# Mus musculus [6] = experiment: Induction of serum IFNgamma production in C57BL/6 mouse assessed as serum IFNgamma level at 100 ug/kg, ip and measured for 48 hrs by peak value method
# Mus musculus [7] = experiment: Induction of serum IFNgamma production in C57BL/6 mouse assessed as serum IFNgamma level at 100 ug/kg, ip and measured for 48 hrs by peak value method relative to KRN7000
# Mus musculus [8] = experiment: Ratio of induction activity for IL-4 production in C57BL/6 mouse at 100 ug/kg, ip after 48 hrs by peak value method to induction activity for IFN-gamma production in C57BL/6 mouse at 100 ug/kg, ip after 48 hrs by peak value method
# Mus musculus [9] = experiment: Induction of serum IL-4 production in C57BL/6 mouse assessed as serum IL-4 level at 100 ug/kg, ip and measured for 48 hrs by AUC method
# Mus musculus [10] = experiment: Induction of serum IL-4 production in C57BL/6 mouse assessed as serum IL-4 level at 100 ug/kg, ip and measured for 48 hrs by peak value method; parameters: unit not given here
Compound,AUC (Mus musculus [1]),Activity (Mus musculus [2]),Activity (Mus musculus [3]),Ratio (Mus musculus [4]),Activity (Mus musculus [5]),Activity (Mus musculus [6]),Activity (Mus musculus [7]),Ratio (Mus musculus [8]),Activity (Mus musculus [9]),Activity (Mus musculus [10])
CCCCCCCCCCCCCCCCCCCCCCCC(=O)N[C@@H](CO[C@H]1O[C@H](CO)[C@H](O)[C@H](O)[C@H]1O)[C@H](O)[C@H](O)CCCCC,6780 pg·h/mL,39%,251%,6.45,244%,336 pg/mL,50%,4.85,,
CCCCCCCCCCCCCCCCCCCCCCCC(=O)N[C@@H](CO[C@H]1O[C@H](CNC(=O)[C@@H](N)CCC(=O)O)[C@H](O)[C@H](O)[C@H]1O)[C@H](O)[C@H](O)CCCCC,3520 pg·h/mL,20%,153%,7.59,108%,241 pg/mL,36%,2.99,2043.36 pg·h/mL,303.26
CCCCCCCCCCCCCCCCCCCCCCCC(=O)N[C@@H](CO[C@H]1O[C@H](CNC(=O)CCc2ccc(O)cc2)[C@H](O)[C@H](O)[C@H]1O)[C@H](O)[C@H](O)CCCCC,4380 pg·h/mL,25%,234%,9.3,235%,169 pg/mL,25%,9.28,3120.95 pg·h/mL,657.75
CCCCCCCCCCCCCCCCCCCCCCCCCC(=O)N[C@@H](CO[C@H]1O[C@H](CO)[C@H](O)[C@H](O)[C@H]1O)[C@H](O)[C@H](O)CCCCCCCCCCCCCC [RGI-7000],17400 pg·h/mL,,,1,,666 pg/mL,,1,1331 pg·h/mL,280
